Converted amounts (≈) assume the structure as drawn. Read-outs that look alike come from different tables or passages of the source.
Tests used:
Staphylococcus aureus = test: Agar-dilution MIC; format: cell-based
[1] = system: Staphylococcus epidermidis; test: Agar-dilution MIC; format: cell-based; settings: 24 hours
Source text: (§1) The agar-dilution procedure described by the International Collaborative study (ICS) group was used to determine the minimum inhibitory concentrations (MIC's).

Streptococcus pneumoniae = test: Agar-dilution MIC; format: cell-based; settings: 24 hours
Source text: as §1

Streptococcus pyogenes = test: Agar-dilution MIC; format: cell-based; settings: 24 hours, Streptococcus pyogenes C203
Source text: as §1

Propionibacterium acnes = test: Agar-dilution MIC (anaerobes); format: cell-based
Source text: Antibiotic A41030 factors A, B and C have also been tested and found to be active against a genus of anaerobic bacteria identified as Propionibacterium acnes.

[2] = system: Bacteroides melaninogenicus; test: Agar-dilution MIC (anaerobes); format: cell-based; settings: Table 14; Bacteroides melaninogenicus 2736
Pc. magnus = test: Agar-dilution MIC (anaerobes); format: cell-based, Peptococcus magnus; settings: Table 15
Protocol: The MIC values were determined by the agar-dilution method, and are recorded in Table 15, which follows.

Escherichia coli = test: Agar-dilution MIC; format: cell-based; settings: Table 17, 24 hours
Klebsiella pneumoniae = test: Agar-dilution MIC; format: cell-based; settings: Table 17; 24 hours; Klebsiella pneumoniae X68
Enterobacter aerogenes = test: Agar-dilution MIC; format: cell-based; settings: Table 17; 24 hours; Enterobacter aerogenes C32
Enterobacter cloacae = test: Agar-dilution MIC; format: cell-based; settings: Table 17, 24 hours
Serratia marcescens = test: Agar-dilution MIC; format: cell-based; settings: Table 17; 24 hours; Serratia marcescens X99
[3] = system: Streptococcus sp. Group B; test: Agar-dilution MIC; format: cell-based; settings: Table 18, 24 hours
Source text: The in vitro activity of antibiotic A41030 factors A and B against a number of representative aerobic, gram-positive bacteria, including Streptococcus sp. Group D, has been determined using a standard agar-dilution assay.

[4] = system: Haemophilus parainfluenzae; test: Agar-dilution MIC; format: cell-based; settings: Table 18, 24 hours
S. pneumoniae = test: Experimental bacterial infection in mice, subcutaneous ED50; format: in vivo; settings: two doses subcutaneously
Protocol: (§2) All of the A41030 factors tested have shown in vivo antimicrobial activity against experimental bacterial infections. When two doses of test compound were administered subcutaneously to mice in illustrative infections, the activity observed is measured as an ED50 value [effective dose in mg./kg. to protect fifty percent of the test animals: See Warren Wick, et al., J. Bacteriol. 81, 233-235 (1961)].

S. pyogenes = test: as above; format: in vivo; settings: two doses subcutaneously
Protocol: as §2

Staph. aureus = test: as above; format: in vivo; settings: two doses subcutaneously
Protocol: as §2

[5] = mice, administered intraperitoneally
[6] = system: Peptococcus asaccharolyticus; test: Agar-dilution MIC (anaerobes); format: cell-based; settings: Table 14; Peptococcus asaccharolyticus 1302
[7] = Table 17, 24 hours, Staphylococcus aureus X400
[8] = Table 17, Staphylococcus epidermidis EPI1
[9] = Table 17, Streptococcus pneumoniae Park I
[10] = Table 13, 24-hour, P. acnes 101
[11] = Table 13, 24-hour, P. acnes 103
[12] = Table 13, 24-hour, P. acnes 104
[13] = Table 13, 24-hour, P. acnes 105
[14] = Table 13, 24-hour, P. acnes 106
[15] = Table 13, 24-hour, P. acnes 107
[16] = Table 13, 24-hour, P. acnes 5170
[17] = Table 13, 24-hour, P. acnes 5176
[18] = Table 13, 24-hour, P. acnes 5187
[19] = Table 13, 24-hour, P. acnes 5191
[20] = Table 13, 24-hour, P. acnes 5197
[21] = Table 13, 24-hour, P. acnes 5226
[22] = Table 13, 24-hour, P. acnes 5227
[23] = Table 13, 24-hour, P. acnes 5228
[24] = Table 13, 24-hour, P. acnes 5229
[25] = Table 13, 24-hour, P. acnes 5246
[26] = Table 13, 24-hour, P. acnes 5292
[27] = Table 14, Propionibacterium acnes 79

N[C@H]1C(=O)N[C@@H]2Cc3ccc(c(Cl)c3)Oc3cc4cc(c3O)Oc3ccc(cc3Cl)[C@@H](O)[C@@H]3NC(=O)C(NC(=O)[C@@H]4NC(=O)[C@@H](NC2=O)c2cc(O)cc(c2)Oc2cc1ccc2O)c1ccc(O)c(c1)-c1c(O)cc(O)cc1[C@@H](C(=O)O)NC3=O [A41030 factor B]
MIC (Staphylococcus aureus): 0.125 µg/mL (≈ 0.104 µM)
MIC (Staphylococcus aureus; Table 17, 24 hours, Staphylococcus aureus S13E): 0.125 µg/mL (≈ 0.104 µM)
MIC (Staphylococcus aureus; [7]): 0.25 µg/mL (≈ 0.209 µM)
MIC (Staphylococcus aureus; Table 18, 24 hours, Staphylococcus aureus 3055): 0.06 µg/mL (≈ 0.05 µM)
MIC (Staphylococcus aureus; Table 18, 24 hours, Staphylococcus aureus V138): 0.06 µg/mL (≈ 0.05 µM)
MIC [1, 8]: 0.125 µg/mL (≈ 0.104 µM)
MIC ([1]; Table 17, Staphylococcus epidermidis EPI2): 0.5 µg/mL (≈ 0.417 µM)
MIC ([1]; Table 18, Staphylococcus epidermidis 219): 0.03 µg/mL (≈ 0.025 µM)
MIC ([1]; Table 18, Staphylococcus epidermidis 222): 0.125 µg/mL (≈ 0.104 µM)
MIC ([1]; Table 18, Staphylococcus epidermidis 269): 0.03 µg/mL (≈ 0.025 µM)
MIC ([1]; Table 18, Staphylococcus epidermidis 270): 0.06 µg/mL (≈ 0.05 µM)
MIC ([1]; Table 18, Staphylococcus epidermidis 285): 0.03 µg/mL (≈ 0.025 µM)
MIC (Streptococcus pneumoniae; [9]): 0.5 µg/mL (≈ 0.417 µM)
MIC (Streptococcus pneumoniae; Table 18, Streptococcus pneumoniae B1-438): 0.5 µg/mL (≈ 0.417 µM)
MIC (Streptococcus pneumoniae; Table 18, Streptococcus pneumoniae Park I): 0.125 µg/mL (≈ 0.104 µM)
MIC (Streptococcus pyogenes; Table 17): 0.25 µg/mL (≈ 0.209 µM)
MIC (Streptococcus pyogenes; Table 18): 0.125 µg/mL (≈ 0.104 µM)
MIC (Propionibacterium acnes; Table 13, 24-hour, P. acnes 44): 0.06 µg/mL (≈ 0.05 µM)
MIC (Propionibacterium acnes; Table 13, 24-hour, P. acnes 79): 0.06 µg/mL (≈ 0.05 µM)
MIC (Propionibacterium acnes; [10]): 0.06 µg/mL (≈ 0.05 µM)
MIC (Propionibacterium acnes; [11]): 0.06 µg/mL (≈ 0.05 µM)
MIC (Propionibacterium acnes; [12]): 0.25 µg/mL (≈ 0.209 µM)
MIC (Propionibacterium acnes; [13]): 0.06 µg/mL (≈ 0.05 µM)
MIC (Propionibacterium acnes; [14]): 0.06 µg/mL (≈ 0.05 µM)
MIC (Propionibacterium acnes; [15]): 0.06 µg/mL (≈ 0.05 µM)
MIC (Propionibacterium acnes; [16]): ≤ 0.03 µg/mL
MIC (Propionibacterium acnes; [17]): 0.06 µg/mL (≈ 0.05 µM)
MIC (Propionibacterium acnes; [18]): 0.06 µg/mL (≈ 0.05 µM)
MIC (Propionibacterium acnes; [19]): 0.06 µg/mL (≈ 0.05 µM)
MIC (Propionibacterium acnes; [20]): 0.06 µg/mL (≈ 0.05 µM)
MIC (Propionibacterium acnes; [21]): 0.5 µg/mL (≈ 0.417 µM)
MIC (Propionibacterium acnes; [22]): 0.06 µg/mL (≈ 0.05 µM)
MIC (Propionibacterium acnes; [23]): 0.5 µg/mL (≈ 0.417 µM)
MIC (Propionibacterium acnes; [24]): 0.25 µg/mL (≈ 0.209 µM)
MIC (Propionibacterium acnes; [25]): 0.125 µg/mL (≈ 0.104 µM)
MIC (Propionibacterium acnes; [26]): 0.06 µg/mL (≈ 0.05 µM)
MIC (Propionibacterium acnes; [27]): 16 µg/mL (≈ 13.3 µM)
MIC [2]: 4 µg/mL (≈ 3.34 µM)
MIC (Pc. magnus; Pc. magnus 1401): 0.125 µg/mL (≈ 0.104 µM)
MIC (Pc. magnus; Pc. magnus 1421): 0.125 µg/mL (≈ 0.104 µM)
MIC (Pc. magnus; Pc. magnus 1477): 0.25 µg/mL (≈ 0.209 µM)
MIC (Escherichia coli; Escherichia coli EC14): 128 µg/mL (≈ 107 µM)
MIC (Escherichia coli; Escherichia coli N10): 128 µg/mL (≈ 107 µM)
MIC (Escherichia coli; Escherichia coli TEM): 128 µg/mL (≈ 107 µM)
MIC (Klebsiella pneumoniae): 128 µg/mL (≈ 107 µM)
MIC (Enterobacter aerogenes): 64 µg/mL (≈ 53.4 µM)
MIC (Enterobacter cloacae; Enterobacter cloacae 265A): 128 µg/mL (≈ 107 µM)
MIC (Enterobacter cloacae; Enterobacter cloacae EB5): 128 µg/mL (≈ 107 µM)
MIC (Serratia marcescens): 128 µg/mL (≈ 107 µM)
MIC ([3]; Streptococcus sp. Group B 5): 1 µg/mL (≈ 0.834 µM)
MIC ([3]; Streptococcus sp. Group B 14): 0.125 µg/mL (≈ 0.104 µM)
MIC ([4]; Haemophilus parainfluenzae 7901): 16 µg/mL (≈ 13.3 µM)
MIC ([4]; Haemophilus parainfluenzae 9796): 16 µg/mL (≈ 13.3 µM)
ED50 (S. pneumoniae): 1.4 mg/kg
ED50 (S. pyogenes): 1.4 mg/kg
ED50 (Staph. aureus): < 0.43 mg/kg
LD50 [5]: > 300 mg/kg
acute toxicity [5]: > 300 mg/kg
MIC [6]: ≤ 0.25 µg/mL

A41030 factor C
MIC (Staphylococcus aureus; [7]): 1 µg/mL
MIC [1, 8]: 0.5 µg/mL
MIC (Streptococcus pneumoniae; [9]): 1 µg/mL
MIC (Streptococcus pyogenes; Table 17): 1 µg/mL
MIC (Propionibacterium acnes; Table 13, 24-hour, P. acnes 44): 0.125 µg/mL
MIC (Propionibacterium acnes; Table 13, 24-hour, P. acnes 79): 0.125 µg/mL
MIC (Propionibacterium acnes; [10]): 0.125 µg/mL
MIC (Propionibacterium acnes; [11]): 0.125 µg/mL
MIC (Propionibacterium acnes; [12]): 0.25 µg/mL
MIC (Propionibacterium acnes; [13]): 0.125 µg/mL
MIC (Propionibacterium acnes; [14]): 0.125 µg/mL
MIC (Propionibacterium acnes; [15]): 0.125 µg/mL
MIC (Propionibacterium acnes; [16]): ≤ 0.03 µg/mL
MIC (Propionibacterium acnes; [17]): ≤ 0.03 µg/mL
MIC (Propionibacterium acnes; [18]): 0.06 µg/mL
MIC (Propionibacterium acnes; [19]): 0.125 µg/mL
MIC (Propionibacterium acnes; [20]): ≤ 0.03 µg/mL
MIC (Propionibacterium acnes; [21]): 0.125 µg/mL
MIC (Propionibacterium acnes; [22]): 0.06 µg/mL
MIC (Propionibacterium acnes; [23]): 1.0 µg/mL
MIC (Propionibacterium acnes; [24]): 0.5 µg/mL
MIC (Propionibacterium acnes; [25]): 0.06 µg/mL
MIC (Propionibacterium acnes; [26]): 0.06 µg/mL
MIC (Propionibacterium acnes; [27]): ≤ 0.25 µg/mL
MIC [2]: 4 µg/mL
MIC (Pc. magnus; Pc. magnus 1401): 0.25 µg/mL
MIC (Pc. magnus; Pc. magnus 1421): 0.25 µg/mL
MIC (Pc. magnus; Pc. magnus 1477): 0.5 µg/mL
ED50 (S. pneumoniae): 6.7 mg/kg
ED50 (S. pyogenes): 10.4 mg/kg
ED50 (Staph. aureus): < 0.43 mg/kg
MIC [6]: ≤ 0.25 µg/mL
